Laboratory results from patent US20240360165A1, “INHIBITORS OF CYCLIN DEPENDENT KINASE 7 (CDK7)” (Syros Pharmaceuticals, Inc., priority 2016, published 2024).
Like-named read-outs stand apart in the source and are kept apart here.

Key:
[1] = biological target: CDK7/Cyclin H/MAT1 complex (Homo sapiens, UniProt P50613); assay: CDK7 inhibition assay (Caliper/LabChip EZ Reader kinase assay); assay type: biochemical; settings: Table 1, CDK7/Cyclin H/MAT1 6 nM, ATP 2 mM, 35 min at 27° C.
In short: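 A Perkin Elmer Caliper/LabChip EZ Reader (Waltham, MA) platform served as the basis for this CDK7 kinase inhibition assay. The work was carried out by Biortus Biosciences, located in Jiangyin, Jiangsu Province, P.R. of China. Each CDK studied had its own kinase assay, and compounds were evaluated for their ability to block CDK7 activity.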

CDK9/Cyclin T1 complex = CDK9/Cyclin T1 complex (Homo sapiens, UniProt P50750); assay: CDK9 inhibition assay (Caliper/LabChip EZ Reader kinase assay); assay type: biochemical; settings: Table 1, CDK9/Cyclin T1 8 nM, ATP 2 mM, 15 min at 27° C.
In short: (§1)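 Caliper/LabChip EZ Reader mobility-shift assays. CDK9/Cyclin T1 at 8 nM with 2 μM 5-FAM-CDK9tide peptide and 10 mM MgCl2; CDK2/Cyclin E1 at 0.5 nM with 2 μM 5-FAM-CDK7tide and 2 mM MgCl2.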

[2] = biological target: T1, CDK12 (aa686-1082)/Cyclin K complex (Homo sapiens, UniProt Q9NYV4); assay: CDK12 inhibition assay (Caliper/LabChip EZ Reader kinase assay); assay type: biochemical; settings: Table 1, CDK12 (aa686-1082)/Cyclin K 50 nM, ATP 2 mM, 3 hr at 27° C.
T1 construct: CDK12 (aa686-1082)/Cyclin K complex

CDK2/Cyclin E1 complex = CDK2/Cyclin E1 complex (Homo sapiens, UniProt P24941); assay: CDK2 inhibition assay (Caliper/LabChip EZ Reader kinase assay); assay type: biochemical; settings: Table 1, CDK2/Cyclin E1 0.5 nM, ATP 2 mM, 35 min at 27° C.
In short: as §1

A673 cells = assay: Inhibition of proliferation of A673 cells (CyQUANT, 72 hour); assay type: cell-based, human; settings: A673 cells, 72 hour, CyQUANT, read-out: Inhibition of Proliferation of A673 Cells (calculated IC50)
In short: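 Human Ewing's sarcoma A673 cells in DMEM with 10% FBS and 1 mM sodium pyruvate, 37° C, 5% CO2, treated 72 h with compound from 4 μM to […] (0.5 log dilutions). Antiproliferative effect read by CyQUANT assay.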

HCC70 cells = assay: Inhibition of proliferation of HCC70 cells (CyQUANT Direct Cell Proliferation Assay, 72 hour); assay type: cell-based, human; settings: Homo sapiens, HCC70, 72 h, read-out: Inhibition of Proliferation of HCC70 Cells (calculated IC50)
In short: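 Human triple-negative breast cancer HCC70 cells cultured at 37° C, 5% CO2, with compound for 72 hour. Anti-proliferative effect read by CyQUANT Direct Cell Proliferation Assay. Dinaciclib, a CDK inhibitor analog and triptolide served as positive controls.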

CDK9/Cyclin T1 complex, sequence (P50750 whole entry, species assumed): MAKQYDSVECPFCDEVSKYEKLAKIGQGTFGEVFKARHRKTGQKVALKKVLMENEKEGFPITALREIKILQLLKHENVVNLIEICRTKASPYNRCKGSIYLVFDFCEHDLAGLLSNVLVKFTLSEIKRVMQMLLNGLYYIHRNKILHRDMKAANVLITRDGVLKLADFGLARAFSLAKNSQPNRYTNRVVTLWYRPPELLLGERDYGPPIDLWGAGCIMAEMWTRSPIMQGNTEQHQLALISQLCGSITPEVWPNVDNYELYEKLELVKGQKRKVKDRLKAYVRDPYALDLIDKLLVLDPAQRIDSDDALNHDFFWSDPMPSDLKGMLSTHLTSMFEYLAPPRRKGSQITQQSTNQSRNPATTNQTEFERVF
CDK9/Cyclin T1 complex, sequence (O60563 whole entry partner, species assumed): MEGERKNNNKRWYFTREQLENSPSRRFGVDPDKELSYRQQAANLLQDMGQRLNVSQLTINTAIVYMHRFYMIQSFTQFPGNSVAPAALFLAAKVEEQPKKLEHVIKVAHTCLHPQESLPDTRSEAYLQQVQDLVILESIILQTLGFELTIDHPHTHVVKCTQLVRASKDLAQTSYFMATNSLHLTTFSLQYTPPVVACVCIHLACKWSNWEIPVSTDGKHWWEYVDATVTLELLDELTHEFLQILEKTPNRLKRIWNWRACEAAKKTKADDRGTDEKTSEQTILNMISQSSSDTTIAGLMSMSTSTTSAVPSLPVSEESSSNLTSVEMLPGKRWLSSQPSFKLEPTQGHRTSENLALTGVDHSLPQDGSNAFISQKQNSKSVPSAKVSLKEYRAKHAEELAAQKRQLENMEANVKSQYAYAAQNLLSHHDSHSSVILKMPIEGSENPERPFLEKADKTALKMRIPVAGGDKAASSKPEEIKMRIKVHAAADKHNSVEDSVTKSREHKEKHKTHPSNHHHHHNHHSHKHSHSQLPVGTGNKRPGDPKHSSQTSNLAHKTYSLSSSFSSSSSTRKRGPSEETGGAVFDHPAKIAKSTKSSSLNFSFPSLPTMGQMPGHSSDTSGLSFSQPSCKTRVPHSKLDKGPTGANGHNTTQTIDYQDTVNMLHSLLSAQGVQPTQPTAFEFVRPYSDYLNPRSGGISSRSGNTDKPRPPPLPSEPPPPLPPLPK
CDK7/Cyclin H/MAT1 complex, sequence (P50613 whole entry, species assumed): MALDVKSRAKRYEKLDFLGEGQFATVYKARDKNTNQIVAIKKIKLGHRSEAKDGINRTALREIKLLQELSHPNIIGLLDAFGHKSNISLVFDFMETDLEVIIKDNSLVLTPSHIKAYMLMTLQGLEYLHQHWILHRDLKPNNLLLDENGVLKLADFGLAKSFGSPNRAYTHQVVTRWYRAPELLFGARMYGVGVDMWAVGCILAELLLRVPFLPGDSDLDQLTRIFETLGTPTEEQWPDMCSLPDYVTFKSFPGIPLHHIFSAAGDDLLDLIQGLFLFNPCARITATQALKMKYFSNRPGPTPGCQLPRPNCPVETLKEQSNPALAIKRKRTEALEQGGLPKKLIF
CDK7/Cyclin H/MAT1 complex, sequence (P51946 whole entry partner, species assumed): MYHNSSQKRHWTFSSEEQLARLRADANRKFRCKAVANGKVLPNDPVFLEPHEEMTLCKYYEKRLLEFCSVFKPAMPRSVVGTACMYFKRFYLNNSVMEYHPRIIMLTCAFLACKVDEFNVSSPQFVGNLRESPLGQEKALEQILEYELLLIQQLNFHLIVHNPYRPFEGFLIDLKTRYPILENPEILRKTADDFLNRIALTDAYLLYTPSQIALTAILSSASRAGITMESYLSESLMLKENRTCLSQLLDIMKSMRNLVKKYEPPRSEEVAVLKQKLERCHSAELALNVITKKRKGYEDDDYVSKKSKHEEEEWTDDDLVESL
CDK7/Cyclin H/MAT1 complex, sequence (P51948 whole entry partner, species assumed): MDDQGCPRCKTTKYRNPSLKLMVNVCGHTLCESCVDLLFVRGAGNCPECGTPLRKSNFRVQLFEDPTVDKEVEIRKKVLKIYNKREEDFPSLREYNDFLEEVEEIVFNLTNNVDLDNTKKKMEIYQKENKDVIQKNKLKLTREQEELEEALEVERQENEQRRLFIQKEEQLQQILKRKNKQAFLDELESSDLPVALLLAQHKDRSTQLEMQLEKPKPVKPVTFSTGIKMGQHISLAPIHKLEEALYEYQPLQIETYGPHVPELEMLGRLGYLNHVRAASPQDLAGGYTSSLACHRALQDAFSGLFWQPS
T1 sequence (Q9NYV4 686-1082, species assumed): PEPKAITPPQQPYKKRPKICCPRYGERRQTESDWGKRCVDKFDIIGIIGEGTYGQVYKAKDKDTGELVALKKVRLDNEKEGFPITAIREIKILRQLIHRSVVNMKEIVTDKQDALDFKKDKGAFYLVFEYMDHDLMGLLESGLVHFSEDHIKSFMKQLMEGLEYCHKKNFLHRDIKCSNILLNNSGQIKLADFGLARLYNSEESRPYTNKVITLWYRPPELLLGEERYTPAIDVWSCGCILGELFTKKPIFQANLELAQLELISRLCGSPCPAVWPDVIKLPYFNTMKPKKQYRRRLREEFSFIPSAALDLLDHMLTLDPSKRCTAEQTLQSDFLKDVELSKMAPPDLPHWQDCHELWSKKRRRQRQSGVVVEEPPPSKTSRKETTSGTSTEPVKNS
T1 sequence (O75909 whole entry partner, species assumed, the tested form may be a part): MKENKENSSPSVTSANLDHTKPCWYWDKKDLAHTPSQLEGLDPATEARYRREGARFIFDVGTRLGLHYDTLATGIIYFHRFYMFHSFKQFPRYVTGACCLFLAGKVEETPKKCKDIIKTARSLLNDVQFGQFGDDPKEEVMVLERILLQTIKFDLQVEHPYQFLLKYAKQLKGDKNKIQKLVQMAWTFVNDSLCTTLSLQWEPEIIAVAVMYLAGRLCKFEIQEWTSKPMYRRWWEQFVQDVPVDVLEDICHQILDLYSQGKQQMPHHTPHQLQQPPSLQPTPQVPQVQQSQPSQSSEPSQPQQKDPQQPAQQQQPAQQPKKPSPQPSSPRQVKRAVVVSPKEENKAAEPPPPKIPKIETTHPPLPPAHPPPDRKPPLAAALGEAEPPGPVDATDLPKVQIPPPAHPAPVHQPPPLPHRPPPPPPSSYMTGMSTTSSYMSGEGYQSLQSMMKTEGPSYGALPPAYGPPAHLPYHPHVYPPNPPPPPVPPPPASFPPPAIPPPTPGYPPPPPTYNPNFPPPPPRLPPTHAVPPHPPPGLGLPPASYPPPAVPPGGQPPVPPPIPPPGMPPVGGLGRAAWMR

IC50 [1]	IC50 (CDK9/Cyclin T1 complex)	IC50 [2]	IC50 (CDK2/Cyclin E1 complex)	IC50 ([1]; listed as 129)	IC50 ([2]; listed as 129)	SMILES	IC50 (CDK9/Cyclin T1 complex; listed as 140)	IC50 ([2]; listed as 140)	IC50 (CDK2/Cyclin E1 complex; listed as 140)	IC50 (A673 cells)	IC50 (HCC70 cells)	IC50 (A673 cells; Homo sapiens, A673, 72 h)
< 20 nM	200 to 5000 nM	20 to 200 nM	200 to 5000 nM	–	–	FC(F)(F)c1cnc(N[C@H]2CCCNC2)nc1-c1n[nH]c2ccccc12 [Compound 103]	–	–	–	–	< 100 nM	20 to 200 nM
20 to 200 nM	> 5000 nM	> 5000 nM	> 5000 nM	20 to 200 nM	200 to 5000 nM	CCN1C[C@@H](Nc2ncc(C(F)(F)F)c(-c3c[nH]c4cc(S(C)(=O)=O)ccc34)n2)CC(C)(C)C1 [Compound 369, N-[(3S)-1-ethyl-5,5-dimethyl-3-piperidyl]-4-(6-methylsulfonyl-1H-indol-3-yl)-5-(trifluoromethyl)pyrimidin-2-amine]	–	–	–	20 to 200 nM	100 to 1000 nM	–

SMILES	IC50 [1]	IC50 (CDK9/Cyclin T1 complex)	IC50 [2]	IC50 (CDK2/Cyclin E1 complex)	IC50 ([1]; listed as 129)	IC50 ([2]; listed as 129)	IC50 (CDK9/Cyclin T1 complex; listed as 140)	IC50 ([2]; listed as 140)	IC50 (CDK2/Cyclin E1 complex; listed as 140)	IC50 (A673 cells)	IC50 (HCC70 cells)	IC50 (A673 cells; Homo sapiens, A673, 72 h)
O=C(c1cccc(-c2ccc3c(-c4nc(N[C@H]5CCCNC5)ncc4C(F)(F)F)c[nH]c3c2)c1)N1CCCC1 [Compound 340, [3-[3-[2-[[(3S)-3-piperidyl]amino]-5-(trifluoromethyl)pyrimidin-4-yl]-1H-indol-6-yl]phenyl]-pyrrolidin-1-yl-methanone]	20 to 200 nM	200 to 5000 nM	200 to 5000 nM	200 to 5000 nM	–	–	> 5000 nM	> 5000 nM	> 5000 nM	200 to 5000 nM	1000 to 5000 nM	–
